# What was measured:
# [1] = tested on: rabbit serum obtained by immunizing a rabbit with the SARS-CoV strain Frankfurt 1; type: binding; set-up: Binding of a rabbit serum to linear peptides / Binding of a rabbit serum to looped peptides / Rabbit serum linear peptides / Rabbit serum looped peptides / Binding of a rabbit serum to linear peptides of protein N of SARS-CoV Urbani (Rabbit serum linear peptides) / Binding of a rabbit serum to looped/cyclic peptides of protein N of SARS-CoV Urbani (Rabbit serum looped peptides): unit not given here
# [2] = tested on: control sera (pooled serum of ten healthy LUMC hospital workers; commercial negative donor pooled serum from the Dutch bloodbank); type: binding, human; set-up: Binding of Control serum LUMC to linear peptides / Binding of Control serum Blood-bank to linear peptides / Binding of Control serum LUMC to looped peptides / Binding of Control Serum Blood-Bank to Looped peptides / Binding of Control serum LUMC to linear peptides of the protein M of SARS-CoV Urbani / Binding of Control serum Blood-bank to linear peptides of the protein M of SARS-CoV Urbani / Binding of Control serum LUMC to looped peptides of the protein M of SARS-CoV Urbani / Binding of Control Serum Blood-Bank to Looped peptides of the protein M of SARS-CoV Urbani: unit not given here
# [3] = tested on: antibodies in sera from SARS patients (sera 1a, 1b, 2, 6, 37, 62, London, SARS-yellow, SARS-green); type: binding, human; set-up: Binding of serum 6 to linear peptides of protein X1 of SARS-CoV Urbani / Binding of serum 37 to linear peptides of protein X1 of SARS-CoV Urbani / Binding of serum 6 to looped/cyclic peptide (PEPSCAN-ELISA) / Binding of serum 37 to looped/cyclic peptide (PEPSCAN-ELISA) / Binding of serum 37 to looped/cyclic peptides of protein X1 of SARS-CoV Urbani / Binding of serum 6 to linear peptides of protein X2 / Binding of serum 37 to linear peptides of protein X2 / Binding of serum 37 to looped/cyclic peptides of protein X2 of SARS-CoV Urbani / Binding of serum 6 to linear peptides of protein M of SARS-CoV Urbani / Binding of serum 37 to linear peptides of protein M of SARS-CoV Urbani / Binding of serum 6 to looped/cyclic peptides of protein M of SARS-CoV Urbani / Binding of serum 37 to looped/cyclic peptides of protein M of SARS-CoV Urbani / Binding of serum 6 to linear peptides of protein X3 of SARS-CoV Urbani / Binding of serum 37 to linear peptides of protein X3 of SARS-CoV Urbani / Binding of serum 37 to looped/cyclic peptides of protein X3 of SARS-CoV Urbani / Binding of serum 6 to linear peptides of protein X4 of SARS-CoV Urbani / Binding of serum 37 to linear peptides of protein X4 of SARS-CoV Urbani / Binding of serum 37 to looped/cyclic peptides of protein X4 of SARS-CoV Urbani / Binding of serum 6 to linear peptides of protein X5 of SARS-CoV Urbani / Binding of serum 37 to linear peptides of protein X5 of SARS-CoV Urbani / Binding of serum 37 to looped/cyclic peptides of protein X5 of SARS-CoV Urbani / Binding of serum 6 to linear peptides of protein N of SARS-CoV Urbani / Binding of serum 37 to linear peptides of protein N of SARS-CoV Urbani / Binding of serum 6 to linear peptide (PEPSCAN-ELISA) / Binding of serum 1a to looped/cyclic peptides of protein N of SARS-CoV Urbani / Binding of serum 1b to looped/cyclic peptides of protein N of SARS-CoV Urbani / Binding of serum 2 to looped/cyclic peptides of protein N of SARS-CoV Urbani / Binding of serum 6 to looped/cyclic peptides of protein N of SARS-CoV Urbani / Binding of serum 37 to looped/cyclic peptides of protein N of SARS-CoV Urbani / Binding of serum 62 to looped/cyclic peptides of protein N of SARS-CoV Urbani / Binding of serum London to looped/cyclic peptides of protein N of SARS-CoV Urbani / Binding of serum SARS-green to looped/cyclic peptides of protein N of SARS-CoV Urbani: unit not given here
# [4] = tested on: recombinant human anti-SARS-CoV antibody 03-018; type: binding; set-up: Binding of antibody 03-018 to linear peptides of the N protein of SARS-CoV Urbani / Binding of antibody 03-018 to looped/cyclic peptides of the N protein of SARS-CoV Urbani: unit not given here
Sequence,Binding of a rabbit serum to linear peptides of protein N of SARS-CoV Urbani (Rabbit serum linear peptides) [1],Binding of a rabbit serum to looped/cyclic peptides of protein N of SARS-CoV Urbani (Rabbit serum looped peptides) [1],Binding of serum 1a to linear peptides of protein N of SARS-CoV Urbani [3],Binding of serum 1a to looped/cyclic peptides of protein N of SARS-CoV Urbani [3],Binding of serum 1b to linear peptides of protein N of SARS-CoV Urbani [3],Binding of serum 1b to looped/cyclic peptides of protein N of SARS-CoV Urbani [3],Binding of serum 2 to linear peptides of protein N of SARS-CoV Urbani [3],Binding of serum 2 to looped/cyclic peptides of protein N of SARS-CoV Urbani [3],Binding of serum 6 to linear peptides of protein N of SARS-CoV Urbani [3],Binding of serum 6 to looped/cyclic peptides of protein N of SARS-CoV Urbani [3],Binding of serum 37 to linear peptides of protein N of SARS-CoV Urbani [3],Binding of serum 37 to looped/cyclic peptides of protein N of SARS-CoV Urbani [3],Binding of serum 62 to linear peptides of protein N of SARS-CoV Urbani [3],Binding of serum 62 to looped/cyclic peptides of protein N of SARS-CoV Urbani [3],Binding of serum London to linear peptides of protein N of SARS-CoV Urbani [3],Binding of serum London to looped/cyclic peptides of protein N of SARS-CoV Urbani [3],Binding of serum SARS-green to linear peptides of protein N of SARS-CoV Urbani [3],Binding of serum SARS-green to looped/cyclic peptides of protein N of SARS-CoV Urbani [3],Binding of serum SARS-yellow to linear peptides of protein N of SARS-CoV Urbani [3],Binding of serum SARS-yellow to looped/cyclic peptides of protein N of SARS-CoV Urbani [3],also measured
PKDHIGTRNPNNNAA,0.2,0.2,0.3,0.4,0.1,0.3,0.3,0.3,0.2,0.3,0.8,0.5,0.9,0.3,0.5,0.3,0.4,0.2,0.8,0.2,Binding of Control Serum Blood-Bank to Looped peptides [2]: 0.5; Binding of Control serum Blood-bank to linear peptides [2]: 0.8; Binding of Control serum LUMC to linear peptides [2]: 0.8; Binding of Control serum LUMC to looped peptides [2]: 0.6; Binding of antibody 03-018 to linear peptides of the N protein of SARS-CoV Urbani [4]: 0.1; Binding of antibody 03-018 to looped/cyclic peptides of the N protein of SARS-CoV Urbani [4]: 0.2
PNNTASWFTALTQHG,0.1,0.4,0.2,0.4,0.1,0.2,0.2,0.3,0.2,0.2,0.7,0.6,0.7,0.5,0.5,0.3,0.3,0.7,0.4,0.6,Binding of Control Serum Blood-Bank to Looped peptides [2]: 0.7; Binding of Control serum Blood-bank to linear peptides [2]: 0.5; Binding of Control serum LUMC to linear peptides [2]: 0.7; Binding of Control serum LUMC to looped peptides [2]: 0.7; Binding of antibody 03-018 to linear peptides of the N protein of SARS-CoV Urbani [4]: 0.1; Binding of antibody 03-018 to looped/cyclic peptides of the N protein of SARS-CoV Urbani [4]: 0.3
PPTEPKKDKKKKTDE,0.2,0.2,0.2,0.2,0.1,0.1,2.0,0.2,0.2,0.1,0.6,0.4,0.7,0.2,0.5,0.2,0.3,0.0,0.6,0.2,Control Serum Blood-Bank Looped peptides [2]: 0.4; Control serum Blood-bank linear peptides [2]: 0.6; Control serum LUMC linear peptides [2]: 0.7; Control serum LUMC looped peptides [2]: 0.3; Binding of antibody 03-018 to linear peptides of the N protein of SARS-CoV Urbani [4]: 0.1; Binding of antibody 03-018 to looped/cyclic peptides of the N protein of SARS-CoV Urbani [4]: 0.2
PQGLPNNTASWFTAL,0.1,0.6,0.2,0.5,0.1,0.3,0.2,0.6,0.1,0.3,0.7,1.0,0.7,0.9,0.4,0.6,0.2,0.4,0.5,0.9,Binding of Control Serum Blood-Bank to Looped peptides [2]: 0.9; Binding of Control serum Blood-bank to linear peptides [2]: 0.7; Binding of Control serum LUMC to linear peptides [2]: 0.7; Binding of Control serum LUMC to looped peptides [2]: 0.9; Binding of antibody 03-018 to linear peptides of the N protein of SARS-CoV Urbani [4]: 0.1; Binding of antibody 03-018 to looped/cyclic peptides of the N protein of SARS-CoV Urbani [4]: 0.3
